How the values were obtained:
PC12D cells = PC12D cells (Li et al., 2004); cited from earlier work
cultured neurons = cultured neurons / neuronal cells (Raulo et al., 1994; Kinnunen et al., 1996; Rauvala et al., 1997); cited from earlier work
[1] = system: NGF-induced neurite outgrowth; settings: Feng et al., 2004; cited from earlier work
[2] = system: HBNF-induced neurite outgrowth; test: modified in vivo neurite outgrowth assay in zebrafish embryos, inhibition by injected heparin; settings: heparin injected into zebrafish embryo at two- or four-cell stage; data not shown
Text: As mentioned above, we modified the in vivo neurite outgrowth assay in zebrafish embryos to investigate the inhibitory effect of heparin or heparan sulfate on HBNF-induced neurite outgrowth by further injection of different dosage of heparin or heparan sulfate into zebrafish embryo at two- or four-cell stage. […] Therefore, the modified assay system also can be used to compare the inhibitory or enhancing effect of HBNF/PTN-induced neurite outgrowth in vivo by heparin and its modified forms, N-syndecan-derived saccharides, and other glycosaminoglycans.

[3] = system: fluorescent blood vessels; settings: transgenic fluorescent embryos (Parng et al., 2002); cited from earlier work
[4] = system: GFP-labeled neurons in zebrafish embryos; test: in vivo neurite outgrowth promotion assay, expression construct coinjected with pHuC-GFP into zebrafish embryos; set-up: species or system Zebrafish (Danio rerio); settings: expression construct coinjected with pHuC-GFP at one-cell stage; observed at 48 or 72 hpf
Method: The expression construct pcDNA-HBNF-HA and pHuC-GFP (panels 2, 5-7) were coinjected into zebrafish embryos at 1-cell stage. Similar injection of pHuC-GFP alone (panel 1) was used as control. Zebrafish embryos at 72 h postfertilization with GFP fluorescence were selected for image analysis. Embryos are shown as lateral view with anterior to the left. Experiments were repeated at least three times and at least 100 fertilized eggs were used for injection of expression constructs at each time. Four representative patterns with significant enhancement of neurite outgrowth (panels 2, 5-7) were shown. Images of bright field and fluorescence were merged and shown in panels 1, 2, and 5-7, while fluorescence images only in panels 3, 4, 8-10. Higher magnification of two regions marked with yellow boxes in panel 2 was shown in panel 3 and 4, respectively. N, notochord; DF, dorsal fin; VF, ventral fin. Scale bars represent 100 μm.
The expression construct pcDNA-NGF-HA and pHuC-GFP were coinjected into zebrafish embryos at 1-cell stage. Similar injection of pHuC-GFP alone was used as control. Zebrafish embryos at 72 hpf with GFP fluorescence were selected for image analysis. Embryos are shown as lateral view with anterior to the left. Images of bright field and fluorescence were merged and shown in panel 1, while fluorescence images only in panel 2. Higher magnification of the head region and tail region with significant neurite outgrowth in panel 2 was shown in panels 3 and 4, respectively.
The expression construct pGFAP-GDNF-HA and pHuC-GFP were coinjected into zebrafish embryos at 1-cell stage. Similar injection of pHuC-GFP alone was used as control. Zebrafish embryos at 48 hpf with GFP fluorescence were selected for image analysis. […] Images of bright field and fluorescence were merged and shown in panel 1, while fluorescence images only in panel 2. […]
Zebrafish (Danio rerio) were maintained at 28° C. on a 14 h-light/10 h-dark cycle. Embryos were incubated at 28° C. and different developmental stages were determined according to the description in Zebrafish Book (Westerfield, 1995). […]

PC12 cells = test: neurite outgrowth in PC12 cells transfected with pcDNA-HBNF-HA; format: cell-based, rat; settings: transfected HBNF cDNA under CMV promoter, without NGF stimulation, 72 h posttransfection
[5] = system: neuro2A neuroblastoma cells; settings: Hiwasa et al., 1997; cited from earlier work
[6] = infused directly in putamen (Gill et al., 2003); cited from earlier work

## CC(=O)O[C@@H]1[C@@H](O)[C@H](C)O[C@@H](OC[C@H]2O[C@@H](Oc3cc(O)c4c(=O)cc(-c5ccc(O)cc5)oc4c3)[C@H](O)[C@@H](O)[C@@H]2O)[C@@H]1O [Compound 2, apigenin 7-O-alpha-L-3-O-acetylrhamnopyranosyl-(1→6)-beta-D-glucopyranoside]
PC12D cells
  enhancing activity of nerve growth factor-mediated neurite outgrowth: enhancing activity

## CC(=O)O[C@@H]1[C@@H](O)[C@H](C)O[C@@H](OC[C@H]2O[C@@H](Oc3cc(O)c4c(=O)cc(-c5ccc(O)cc5)oc4c3)[C@H](O)[C@@H](O)[C@@H]2O)[C@@H]1OC(C)=O [Compound 3, apigenin 7-O-alpha-L-2,3-di-O-acetylrhamnopyranosyl-(1→6)-beta-D-glucopyranoside]
PC12D cells
  enhancing activity of nerve growth factor-mediated neurite outgrowth: enhancing activity

## low molecular weight heparin
Cultured neurons
  inhibition of HBNF/PTN-induced neurite outgrowth: more potent inhibition

## COC(=O)[C@]1(O)C[C@H]2O[C@]1(C)n1c3ccc(O)cc3c3c4c(c5c6ccccc6n2c5c31)C(=O)NC4=O [Indocarbazostatin C, Indocarbazostatins C]
[1]
  inhibition of NGF-induced neurite outgrowth: inhibitors of NGF-induced neurite outgrowth

## COC(=O)[C@]1(O)C[C@H]2O[C@]1(C)n1c3ccc(O)c(N)c3c3c4c(c5c6ccccc6n2c5c31)C(=O)NC4=O [Indocarbazostatin D]
[1]
  inhibition of NGF-induced neurite outgrowth: inhibitors of NGF-induced neurite outgrowth

## heparin
[2]
  inhibitory effect on HBNF-induced neurite outgrowth: inhibit HBNF-induced neurite outgrowth

## Cc1[nH]c(/C=C2\C(=O)Nc3ccccc32)c(C)c1CCC(=O)O [SU-6668]
[3]
  inhibition of angiogenesis: inhibit angiogenesis

B1: zebrafish GDNF: zebrafish glial-derived neurotrophic factor expressed in glia cells from pGFAP-GDNF-HA (protein, UniProt Q98TU0 90-235, looked up)
Glial cell line-derived …: SSDVEPQMKRDRVRQKAAANTEKSGGRGRGERKRSRGRARSRDDRVKGQGRGCLLKEIHLNVTDLDLGYRTKEELIFRYCSGPCHDAETNYDKILNNLTHNKKLDKDTPSRTCCRPIAFDDDISFLDDSLEYHTLKKHSAKKCACV
modifications: HA tag
notes: zebrafish glial-derived neurotrophic factor expressed in glia cells from pGFAP-GDNF-HA
[4]
  enhancement of neurite outgrowth in zebrafish embryos: induce extensive neurite outgrowth

B2: zebrafish HBNF: zebrafish heparin-binding neurotrophic factor (SEQ ID NO: 1) expressed from pcDNA-HBNF-HA (protein)
chain: MQQQWVCVALLALLTVTATLADGGKTEKQGKKERKSDCGEWQWSVCVANEGDCGLGIREGTRSGNDCKQTIKTQRCKIPCNWKKQFGGECKYDFQAWGECDSTTGMKTRTGVLKRALMDANCPNTVSATKPCGKPKTKMQDSQKPKRDGKKKERNPTD
modifications: HA tag; Danio rerio
PC12 cells
  neurite outgrowth in PC12 cells: induce significant neurite outgrowth
[4]
  enhancement of neurite outgrowth in zebrafish embryos: enhance extensive neurite outgrowth

B3: zebrafish NGF: zebrafish nerve growth factor expressed from pCMV-NGF-HA (protein, UniProt Q6YBR5 77-194, looked up)
Nerve growth factor: KAGPPQHRGVYSVCESISHWEGNKTKATDITGNEVTVLPDVIINNSKKKQYFFETTCSSGRTGGSGCLGIDARHWNSYCTNSHTFVRALTSFKNLVAWRLIRINVACVCVLSRKSWRA
modifications: HA tag
notes: zebrafish nerve growth factor expressed from pCMV-NGF-HA
[4]
  enhancement of neurite outgrowth in zebrafish embryos: induce extensive neurite outgrowth

B4: recombinant GDNF: recombinant glial-derived neurotrophic factor (Hiwasa et al., 1997) (protein, UniProt P39905 78-211, looked up)
Glial cell line-derived …: SPDKQMAVLPRRERNRQAAAANPENSRGKGRRGQRGKNRGCVLTAIHLNVTDLGLGYETKEELIFRYCSGSCDAAETTYDKILKNLSRNRRLVSDKVGQACCRPIAFDDDLSFLDDNLVYHILRKHSAKRCGCI
[5]
  neurite outgrowth of neuro2A neuroblastoma cells: induce neurite outgrowth

B5: GDNF: glial-derived neurotrophic factor infused directly in putamen in a clinical trial (protein, UniProt P39905 78-211, looked up)
Glial cell line-derived …: SPDKQMAVLPRRERNRQAAAANPENSRGKGRRGQRGKNRGCVLTAIHLNVTDLGLGYETKEELIFRYCSGSCDAAETTYDKILKNLSRNRRLVSDKVGQACCRPIAFDDDLSFLDDNLVYHILRKHSAKRCGCI
[6]
  side-effects: does not have significant side-effects
  treatment effect in Parkinson disease: effective treatment for Parkinson disease
